In patent US4608365A, “Treatment of neurologic functions” (priority 1984, dated 1986):

Legend:
[1] = test system: amyotrophic lateral sclerosis patients; experiment: Effect of TRH on chronic joint pain in ALS patients (Example VIII); type: in vivo, human; conditions: after TRH treatment
Description: In untreated amyotrophic lateral sclerosis patients, especially in more advanced stages of the disease, aching of joints is common, (e.g., in a "frozen shoulder" or painful hip). Often, the pain is so severe as to impair sleep. […] The reduction of pain was clearly appreciated when the patients were awake, and it also allowed much more restful nights without their being awakened frequently by pain. […] A logical extension of this observation is that pain of many causes, including other forms of arthritic pain, might be lessened by TRH, or an analog, active derivative or analog of an active derivative of TRH.

[2] = test system: ALS patients; conditions: human, in vivo
Method: Five ALS patients (men, women, duration of disease one, one, three and one-half, four and three years, respectively) were given TRH as a continuous intravenous infusion. […] For about one-fifth of the days, the patients were given saline placebo.
It should be noted that the TRH administered in Example I was infused at a rate of up to 200 mg. over a twenty-four hour period. In terms of presence in the body at any one time, this amounted to an infusion rate of about 0.14 mg/minute ([…] body weight based upon the average patient weight of 70 kg). Accordingly, and in view of the significant results shown in Examples II-VIII, it appears that an elevated initial dose and consequently a blood level peak, providing a pulse-effect, is required each time TRH is given. Specifically, in Example IV, intravenous infusion at one milligram per minute (over seven times the infusion rate in Example I) produced an improvement of strength in several muscle functions. […] In Example IV, an acute increase in strength occurred at 4.7 mg/minute intravenously.
There were several control aspects of the TRH studies. […] The patients given subcutaneous TRH had treatments interspersed with saline placebo injections. […] The time course of response was not known before the study and, in fact, it was expected that the onset would be later and the duration of response longer than was actually found. […]

[3] = test system: ALS patients; type: in vivo, human
Method: As shown in Examples I-V, intravenous infusion of thyrotropin-releasing hormone improves weakness and spasticity from lower motor neuron and upper motor neuron involvement in patients with amyotrophic lateral sclerosis and proximal spinal muscular atrophy. In an additional study, forty-one ALS patients were treated with 461 days of subcutaneous TRH administered 75-150 mg once daily or 75 mg twice daily. The subcutaneous doses were sometimes administered by patients or spouses. Included were all forms of ALS, and all patients were videotaped pre- and post-treatment. […] Saline injections produced no responses. The previously-noted lesser benefit and side-effects in females was less evident.
Benefit and side-effects of TRH administered subcutaneously were qualitatively and quantitatively similar to those of intravenous TRH described in Examples III and IV. […] Response times were somewhat different.
There were several control aspects of the TRH studies. […] The patients given subcutaneous TRH had treatments interspersed with saline placebo injections. […] The time course of response was not known before the study and, in fact, it was expected that the onset would be later and the duration of response longer than was actually found. Different patients responded to different doses of TRH, and the sex difference in response (woman apparently less responsive) was not expected. […] There were three observers, one unaware of the infusion status. In addition, clinical examinations of all patients of Examples III-VII were videotaped and later reviewed by several observers.
In each of the foregoing Examples, the TRH was administered in a normal saline solution containing 100 mg/ml of TRH. The pH of the solution was not adjusted. This particular carrier and strength was selected for its ready availability, the convenience in calculating dosages administered and its similarity to the placebo solution, and additional carriers may be employed as desired. Timed-release carriers would be particularly advantageous, and are within the scope of the invention.

[4] = test system: ALS patients; experiment: Transient autorefractory effect, intravenous TRH in ALS patients; type: in vivo, human
Method: To analyze this phenomenon, four ALS patients were given six-minute intravenous pulses of […] of TRH at ten to twenty minute intervals. Each of the first one to five "priming doses" produced or, sustained dramatically-increased strength in responsive muscles. Subsequent identical pulses precipitated an equally dramatic interruption within 18-30 seconds causing rapid loss of all improvement, back to baseline strength or below, i.e., "autorefractoriness." Some weakness of clinically normal limb muscles also sometimes occurred. Eleven autorefractory states of the four patients lasted 12-100 minutes (median 68 minutes) after initial administration of TRH, until spontaneous recovery re-achieved maximal strength benefit. During recovery, strength fluctuated. […] When the autorefractory state first developed, with loss of strength to baseline, increasing the infusion to 1.5 mg/minute rapidly overcame the "block" within one minute, associated with increased strength. Within another minute, complete autorefractoriness reappeared. Raising the rate to 2 mg/minute again reversed this blockage, with strength increased to maximum in thirty seconds, but autorefractoriness reappeared in 1.5 minutes. […] Strength fluctuated between complete blockage and partial reversal for the next 71 minutes until the autorefractoriness fully reversed itself at 81 minutes.

[5] = human, in vivo
Method: In three ALS patients given 25 mg TRH intravenously during 6 minutes, concommitant TRH values were measured in the plasma and serum at 0, 6 and 12 minutes.

[6] = test system: non-ALS person with chronic juvenile proximal spinal muscular atrophy; type: in vivo, human
[7] = eleven autorefractory states of four patients

## NC(=O)[C@@H]1CCCN1C(=O)[C@H](Cc1cnc[nH]1)NC(=O)[C@@H]1CCC(=O)N1 [TRH, L-pyroglutamyl-L-histidyl-L-prolinamide]
[1]
  arthritic (joint) pain: striking improvement
  duration of pain improvement: as long as one to four days
[2]
  transient rise in serum aminotransferases: has not been found
[3]; ALS and other patients, therapeutic amounts (summary of all studies)
  improvement in neurologic deficits from hypofunction of lower and upper motor neurons: moderate to excellent improvement
[3]; a few months later, evaluated in more detail
  muscle strength in retreated female non-responder of Example II: slight but definite improvement of muscle strength
[3]; human, in vivo
  effect on mood, alertness, excitation, appetite or sleep: no noticeable effect
  new side effects: very transient taste noted within a few minutes; asthmatic phenomena lasting about five minutes during maximal shivering in two patients with a history of asthma
  strength and head tremor in one patient with hereditary ALS: improvement in strength and also improvement in a co-existing head tremor
[3]; human, in vivo, sc
  transient shivering, onset and end: beginning at three to ten minutes and lasting until thirty to sixty minutes
[3]; s.c.
  neuromuscular stamina: clearly increased
  painful muscle cramps, spasms, spontaneous clonus and stiffness: eliminated or lessened for several days in all patients having them
  painful spontaneous flexor withdrawal reflexes: remained eliminated for at least twelve days in some instances
  swallowing: increased, eliminating choking on food and saliva accumulation in the mouth
  time benefits in strength, cramps, spasticity and clonus often endured undiminished: twenty-four hours
  time to maximal increased strength: one-and-a-half to two minutes
[3]; s.c. 150 mg once daily or 75 mg twice daily (summary)
  improvement: similarly striking improvement
[3]; s.c. 75-150 mg once daily or 75 mg twice daily, forty-one ALS patients, 461 days
  response: beneficial responses
[3]; s.c., many patients
  stair climbing: eleven flights of stairs (compared to two with difficulty before TRH)
[3]; s.c., severe ALS
  aching of shoulder and hip joints: temporarily reduced or abolished for at least one to three days
[3]; s.c., some patients
  recovery of lost abilities: regained abilities that had been lost for six to twelve months
[3]; s.c., when shivering diminished or one to three hours thereafter
  spasticity, clonus and muscle cramps: improved from their before-treatment status or completely abolished or absent
[3]; single injection
  subcutaneous dose required per body weight: ≥ 0.71 mg/kg of body weight
[3]; single injection once, or similar amount twice-a-day
  subcutaneous dose required: at least 50 mg
[4]; continuous i.v. 1-8 mg/minute, all patients
  onset of waning-waxing of TRH-increased lower motor neuron strength: as early as three to thirty minutes
[4]; [7]
  duration of autorefractory states: 12 to 100 min
  median duration of autorefractory states: 68 min
[4]; one ALS patient
  partial reversal of autorefractoriness after TRH was stopped: partially reversed at ten minutes
  time to full reversal of autorefractoriness after TRH was stopped: 81 min
[4]; one ALS patient, 1 mg/minute continuous i.v.
  strength: markedly increased their strength
[4]; one ALS patient, 2.5 mg/minute for nine minutes
  strength after raising the rate during autorefractoriness: failed to increase strength
[4]; six-minute i.v. pulses of 4.17 mg/minute at ten to twenty minute intervals, four ALS patients
  time to interruption (loss of all improvement) after subsequent identical pulses: 18 to 30 s
[5]
  cerebrospinal fluid TRH level: ≤ 5368 pg/mL
[6]; 1-8 mg/minute i.v., 500 mg total, several muscle functions
  muscle strength: slight to moderate improvement of strength
[6]; i.v.
  sensitivity to TRH relative to the men: one-fourth to one-eighth as sensitive
[6]; printed as Example IV (summary)
  intravenous rate at which an acute increase in strength occurred: 4.7 mg/min
